What was measured:
[1] = target: T1, GPR119 (GLUTag-Fla cells which express GPR119) (Mus musculus, UniProt Q7TQP3); assay: Flash Plate adenylyl cyclase (cAMP) assay with GLUTag-Fla cell membranes; type: biochemical
T1 construct: endogenous in cells; host or cells: GLUTag-Fla (mouse enteroendocrine cell line), membrane preparation
T1 sequence (Q7TQP3 1-335): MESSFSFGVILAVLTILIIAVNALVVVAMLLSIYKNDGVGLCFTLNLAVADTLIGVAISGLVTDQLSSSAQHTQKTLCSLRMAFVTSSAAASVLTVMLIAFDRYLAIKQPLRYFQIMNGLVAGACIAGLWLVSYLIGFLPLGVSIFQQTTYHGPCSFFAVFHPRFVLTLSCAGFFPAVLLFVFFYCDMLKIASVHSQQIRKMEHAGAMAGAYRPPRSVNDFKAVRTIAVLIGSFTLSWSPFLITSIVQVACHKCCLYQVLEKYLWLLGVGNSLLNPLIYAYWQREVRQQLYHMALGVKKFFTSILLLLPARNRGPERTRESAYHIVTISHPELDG
Method: (§1) GLUTag is a mouse enteroendocrine cell line that secretes GLP-1 [Brubaker et al., Endocrinology (1998) 139:4108-4114]. The effect of GPR119 agonist on the level of intracellular cAMP in GLUTag (Fla subline) enteroendocrine cells was determined. The Fro subline of GLUTag was used as a negative control.
(§2) GluTag (GLUTag-Fla and GLUTag-Fro) cells were plated at […] in 15-cm tissue culture plate with regular growth medium. On the next day, cells were scraped off with cold Scraping Buffer (20 mM HEPES, 10 mM EDTA, pH7.4) and spinned down at 1000 rpm for 17 mins at 4° C. Cell pellets were washed with cold Membrane Wash Buffer (20 mM HEPES, 0.1 mM EDTA, pH7.4) and spun again as above. […] Protein concentration was determined by Bradford Assay. […]
(§3) The cyclase assay was done with a Flash Plate™ Adenylyl Cyclase kit (New England Nuclear; Cat. No. SMP004A). […] The cAMP generated in the wells can be quantitated by a direct competition for binding of radioactive cAMP tracer to the cAMP antibody.
(§4) Details of the cyclase assay as it was carried out are described here. cAMP standards and Detection Buffer (comprising 1 μCi of tracer [125I]cAMP (50 μl) to 11 ml Detection Buffer) were prepared and maintained in accordance with the manufacturer's instructions. […] Plates were incubated for an additional two hours, after which the samples were counted in a Wallac MicroBeta scintillation counter. […]

[2] = tested on: GLUTag-Fro cells which do not express GPR119; assay: Flash Plate adenylyl cyclase (cAMP) assay with GLUTag-Fro cell membranes (negative control); type: biochemical, mouse
Method: as §1, §2, §3, §4

[3] = tested on: GLUTag-Fla cells; assay: GLP-1 secretion in GLUTag-Fla cells (GLP-1 Active ELISA); type: cell-based, mouse; conditions: various concentrations, serum free DMEM with 15 mM glucose, one hour at 37° C.
Method: GLUTag-Fla cells (see Example 12, supra) were plated in 24-well plates on day one in complete culture medium (DMEM/10% FBS). On day two the culture medium was replaced with a low glucose medium (DMEM/3 mM Glucose/10% FBS). On day three cells were washed twice with 1XPBS. The washed GLUTag-Fla cells were stimulated with GPR119 agonist (AR231453) at various concentrations or with forskolin (1 uM) as a positive control in serum free DMEM with 15 mM glucose for one hour at 37° C. and 5% CO2 in a tissue culture incubator. The supernatants were then collected and clarified by centrifugation at 500 g and 4° C. for 5 minutes. GLP-1 released into the supernatant was determined by ELISA using reagents purchased from LINCO Research Laboratory [Glucagon-Like Peptide-1 (Active) ELISA Kit. Cat. #EGLP-35K].

[4] = tested on: elevated blood glucose level; assay: Oral glucose tolerance test (oGTT) in mice (Example 1); type: in vivo
Method: Oral glucose tolerance test (oGTT) in mice was carried out as described here. Overnight fasted mice (n=6 mice per treatment) were administered via oral gavage with vehicle (PET), a GPR119 agonist (AR231453) at 1 mkg (milligram compound per kilogram of body weight), a DPP-IV inhibitor (AR247810) at 0.1 mkg, or a combination of the GPR119 agonist (1 mkg) and the DPP-IV inhibitor (0.1 mkg). Thirty minutes later, a glucose bolus (3 gram/kg) was then delivered per orally. Plasma glucose levels were determined at the indicated time points over a two hour period using blood (˜5 μl) collected from tail nick and a glucose meter. Glycemic excursion curve was graphed based on data from 6 mice and given in mean values+/−SEM (FIG. 1A).

[5] = tested on: blood glucose level; assay: Oral glucose tolerance test (oGTT) in C57BL/6J mice (Example 14); type: in vivo; conditions: DPP-IV inhibitor alone, 1 mpk oral gavage, one hour before glucose bolus 2 gram/kg
Method: Oral glucose tolerance test (oGTT) in 7-8 week old C57BL/6J mice was carried out as described here. […] GPR119 agonist AR244061 was administered at 10 mpk or 30 mpk (milligram compound per kilogram of body weight). […] One hour after compound dosing, a glucose bolus (2 gram/kg) was delivered per orally, and tail blood samples were collected to measure blood glucose at 0, 30, 60 and 120 minutes. […] For each treatment group, glycemic excursion curve was graphed and is presented with blood glucose concentration given in mean values+/− standard error of the mean (SEM). Area Under Curve (AUC) of the glycemic excursion was calculated and reported as AUC (% of vehicle control).

Compound: CC(C)c1noc(C2CCN(c3ncnc(Nc4ccc(S(C)(=O)=O)cc4F)c3[N+](=O)[O-])CC2)n1 [AR231453]
- Elevation of the level of intracellular cAMP ([1]; GLUTag-Fla cells which express GPR119): elevate the level of intracellular cAMP
- EC50 ([1]; GLUTag-Fla membranes, eight doses from 10 uM to 1.27 nM, 60 min at room temperature, read-out: EC50 for elevation of cAMP in GLUTag cells): ~4.3 nM
- Elevation of the level of intracellular cAMP [2]: not
- GLP-1 secretion on stimulation [3]: secrete GLP-1
- AUC inhibition (effective therapeutic response) ([4]; compound alone at significantly higher doses (FIG. 1C, FIG. 1D)): around 40%

Compound: exendin-4: incretin mimetic [reference compound]
- AUC inhibition of glycemic excursion ([4]; incretin mimetic in this mouse model, dose not given): ~60%

Compound: N#C[C@@H]1CCCN1C(=O)CNC12CC3CC(CC(O)(C3)C1)C2 [LAF237, (1-[[3-hydroxy-1-adamantyl)amino]acetyl]-2-cyano-(S)-pyrrolidine]
- Glycemic control in oGTT [5]: measurable glycemic control

Compound: N[C@@H](CC(=O)N1CCn2c(nnc2C(F)(F)F)C1)Cc1cc(F)c(F)cc1F [MK-0431, 3(R)-Amino-1-[3-(trifluoromethyl)-5,6,7,8-tetrahydro[1,2,4]triazolo[4,3-a]pyrazin-7-yl]-4-(2,4,5-trifluorophenyl)butan-1-one]
- Glycemic control in oGTT [5]: measurable glycemic control
